This assay relates to Spontaneously hypertensive rats. The assay can be described thus: Antihypertensive activity: systolic blood pressure by tail cuff method. It counts as in vivo. As to conditions: maximum at 1-4 hours post dose. Here is the method: Systolic blood pressures were recorded by a modification of the tail cuff method described by I.M. Claxton, M.G. Palfreyman, R.H. Poyser, R.L. Whiting, European Journal of Pharmacology, 37, 179 (1976). A W+W BP recorder, model 8005 was used to display pulses. Prior to all measurements rats were placed in a heated environment (33.5 ± 0.5 °C) before transfer to a restraining cage. Each determination of blood pressure was the mean of at least 6 readings. Spontaneously hypertensive rats (ages 12-18 weeks) with systolic blood pressures >180 mmHg were considered hypertensive.

These results are taken from patent EP0399834B1, “1,2,4-Triazole derivatives, their preparation and their use for treating hypertension or respiratory tract disorders” (Beecham Group p.l.c., priority 1989, dated 1990).

Consider `Cn1ncnc1N[C@@H]1c2cc(C#N)ccc2OC(C)(C)[C@H]1O` (relative stereo) [Example E2, trans-N⁵-4-[6-cyano-3,4-dihydro-2,2-dimethyl-2H-benzopyran-3-ol]amino-1-methyl-1H-1,2,4-triazole], for which, under “Dose 0.3 mg/kg”, the “% b.p. fall” value was determined as 22%.
Consider `Cn1nc(N)nc1N[C@@H]1c2cc(C#N)ccc2OC(C)(C)[C@H]1O` (relative stereo) [Example E7, (3S,4R)-N⁵-[trans-4-(6-cyano-3,4-dihydro-2,2-dimethyl-2H-1-benzopyran-3-ol)]-1-methyl-1H-1,2,4-triazole-3,5-diamine], for which the “% b.p. fall” value (Dose 0.05 mg/kg) came to 45%.
With `Cn1nc(N)nc1N[C@@H]1c2cc(C#N)ccc2OC(C)(C)[C@H]1O` (relative stereo) [Example E1, N⁵-[trans-4-(6-Cyano-2,3-dihydro-2,2-dimethyl-2H-benzopyran-3-ol)]-1-methyl-1H-1,2,4-triazole-3,5-diamine], where the note is “Dose 0.1 mg/kg”, the “% b.p. fall” value was 30%.
As to `Cc1nc(N[C@@H]2c3cc(C#N)ccc3OC(C)(C)[C@H]2O)n(C)n1` (relative stereo) [Example E4, trans-N⁵-4-[6-Cyano-3,4-dihydro-2,2-dimethyl-2H-benzopyran-3-ol]amino-1,3-dimethyl-1H-1,2,4-triazole], the “% b.p. fall” value (Dose 1.0 mg/kg) was found to be 22%.
